The text below walks through data of publication PMC5218480 (PLoS ONE, 2017).

This test has as its system MV-4-11 cells. As to the kind of experiment: Gene expression microarray analysis (Affymetrix PrimeView) and GSEA. It is filed as cell-based, human. The conditions noted are these: ProbeSet 11720566_at; LIST D. The arrangement: RFU PODN (11730768_x_at) / Fold change /veh PODN (11730768_x_at) / RFU LINC00158 (11744669_a_at) / Fold change /veh LINC00158 (11744669_a_at) / RFU DUSP10 (11751237_a_at) / Fold change /veh DUSP10 (11751237_a_at) / RFU ID3 (11757404_x_at) / Fold change /veh ID3 (11757404_x_at) / RFU PLEKHG5 (11737974_s_at) / Fold change /veh PLEKHG5 (11737974_s_at) / RFU LRRC4B (11730491_at) / Fold change /veh LRRC4B (11730491_at) / RFU GIMAP4 (11747438_a_at) / Fold change /veh GIMAP4 (11747438_a_at) / RFU KRT8 (11758183_x_at) / Fold change /veh KRT8 (11758183_x_at) / RFU CNN1 (11734310_a_at) / Fold change /veh CNN1 (11734310_a_at) / RFU VPS37D (11726825_at) / Fold change /veh VPS37D (11726825_at) / RFU C10orf10 (11716522_x_at) / Fold change /veh C10orf10 (11716522_x_at) / RFU KIR2DL2 /// KIR2DL4 /// KIR2DL5A /// KIR2DL5B /// KIR2DS1 /// KIR2DS2 /// KIR2DS3 /// KIR2DS4 /// KIR3DL3 /// KIR3DL3 /// KIR3DS1 (11738374_at) / Fold change /veh KIR2DL2 /// KIR2DL4 /// KIR2DL5A /// KIR2DL5B /// KIR2DS1 /// KIR2DS2 /// KIR2DS3 /// KIR2DS4 /// KIR3DL3 /// KIR3DL3 /// KIR3DS1 (11738374_at) / RFU C1QL1 (11718748_at) / Fold change /veh C1QL1 (11718748_at) / RFU TMPRSS4 (11747572_a_at) / Fold change /veh TMPRSS4 (11747572_a_at) / RFU HAMP (11756126_x_at) / Fold change /veh HAMP (11756126_x_at) / RFU RNFT2 (11725882_a_at) / Fold change /veh RNFT2 (11725882_a_at) / RFU NR4A2 (11747474_a_at) / Fold change /veh NR4A2 (11747474_a_at) / RFU ABCC12 (11746883_a_at) / Fold change /veh ABCC12 (11746883_a_at) / RFU TMEM136 (11760407_x_at) / Fold change /veh TMEM136 (11760407_x_at) / RFU CLDN22 /// WWC2 (11732394_at) / Fold change /veh CLDN22 /// WWC2 (11732394_at) / RFU HLA-DPB1 (11760878_x_at) / Fold change /veh HLA-DPB1 (11760878_x_at) / RFU SPINT1 (11716480_a_at) / Fold change /veh SPINT1 (11716480_a_at) / RFU GAP43 (11754022_s_at) / Fold change /veh GAP43 (11754022_s_at) / RFU A4GNT (11735810_at) / Fold change /veh A4GNT (11735810_at) / RFU PRB3 (11715151_x_at) / Fold change /veh PRB3 (11715151_x_at) / RFU TUBB4B (11761932_at) / Fold change /veh TUBB4B (11761932_at) / RFU CAPN14 (11732068_a_at) / Fold change /veh CAPN14 (11732068_a_at) / RFU TMCC2 (11721928_a_at) / Fold change /veh TMCC2 (11721928_a_at) / RFU IRGQ (11745062_a_at) / Fold change /veh IRGQ (11745062_a_at) / RFU FAM174B (11720279_a_at) / Fold change /veh FAM174B (11720279_a_at) / RFU TMPRSS4 (11748680_a_at) / Fold change /veh TMPRSS4 (11748680_a_at) / RFU FAM212B (11763350_a_at) / Fold change /veh FAM212B (11763350_a_at) / RFU PLEKHG5 (11743358_a_at) / Fold change /veh PLEKHG5 (11743358_a_at) / RFU ZSCAN30 (11745921_a_at) / Fold change /veh ZSCAN30 (11745921_a_at) / RFU CMKLR1 (11741424_a_at) / Fold change /veh CMKLR1 (11741424_a_at) / RFU LOC101060620 /// MAPK8IP1 (11723275_at) / Fold change /veh LOC101060620 /// MAPK8IP1 (11723275_at) / RFU SPTSSB (11747773_x_at) / Fold change /veh SPTSSB (11747773_x_at) / RFU PRSS12 (11739890_at) / Fold change /veh PRSS12 (11739890_at) / RFU BIN1 (11741810_x_at) / Fold change /veh BIN1 (11741810_x_at) / RFU WNT11 (11732464_a_at) / Fold change /veh WNT11 (11732464_a_at) / RFU C10orf10 (11716521_a_at) / Fold change /veh C10orf10 (11716521_a_at) / RFU C5orf56 (11738089_at) / Fold change /veh C5orf56 (11738089_at) / RFU CYB561 (11721691_x_at) / Fold change /veh CYB561 (11721691_x_at) / RFU ANKRD19P (11752326_a_at) / Fold change /veh ANKRD19P (11752326_a_at) / RFU OR2T12 /// OR2T33 /// OR2T8 (11738714_s_at) / Fold change /veh OR2T12 /// OR2T33 /// OR2T8 (11738714_s_at) / RFU VCAN (11748164_a_at) / Fold change /veh VCAN (11748164_a_at) / RFU JSRP1 (11732532_at) / Fold change /veh JSRP1 (11732532_at) / RFU KRTAP10-11 (11738290_x_at) / Fold change /veh KRTAP10-11 (11738290_x_at) / RFU MYO3A (11730013_a_at) / Fold change /veh MYO3A (11730013_a_at) / RFU EBF3 (11725865_a_at) / Fold change /veh EBF3 (11725865_a_at) / RFU CAMK2N1 (11719241_x_at) / Fold change /veh CAMK2N1 (11719241_x_at) / RFU C5orf56 (11738088_a_at) / Fold change /veh C5orf56 (11738088_a_at) / RFU OLFML3 (11715873_a_at) / Fold change /veh OLFML3 (11715873_a_at) / RFU LOC100653217 /// NTM (11731650_a_at) / Fold change /veh LOC100653217 /// NTM (11731650_a_at) / RFU MAPK11 (11762145_a_at) / Fold change /veh MAPK11 (11762145_a_at) / RFU FIZ1 (11724087_x_at) / Fold change /veh FIZ1 (11724087_x_at) / RFU OASL (11726364_x_at) / Fold change /veh OASL (11726364_x_at) / RFU SOX15 (11748057_x_at) / Fold change /veh SOX15 (11748057_x_at) / RFU CD79A (11719716_a_at) / Fold change /veh CD79A (11719716_a_at) / RFU HIST1H1D (11736915_at) / Fold change /veh HIST1H1D (11736915_at) / RFU CASKIN2 (11723855_a_at) / Fold change /veh CASKIN2 (11723855_a_at) / RFU LOC730098 (11760151_x_at) / Fold change /veh LOC730098 (11760151_x_at) / RFU OR4N2 (11742367_at) / Fold change /veh OR4N2 (11742367_at) / RFU PRRT2 (11749266_a_at) / Fold change /veh PRRT2 (11749266_a_at) / RFU SNX32 (11753110_a_at) / Fold change /veh SNX32 (11753110_a_at) / RFU CDHR5 (11726645_a_at) / Fold change /veh CDHR5 (11726645_a_at) / RFU RCAN1 (11760418_a_at) / Fold change /veh RCAN1 (11760418_a_at) / RFU FAM167A (11723789_a_at) / Fold change /veh FAM167A (11723789_a_at) / RFU FAM26E (11764081_at) / Fold change /veh FAM26E (11764081_at) / RFU ISYNA1 (11749810_s_at) / Fold change /veh ISYNA1 (11749810_s_at) / RFU ACY1 (11761880_at) / Fold change /veh ACY1 (11761880_at) / RFU 11764098_at / Fold change /veh 11764098_at / RFU SAMD14 (11745864_x_at) / Fold change /veh SAMD14 (11745864_x_at) / RFU NPB (11741838_a_at) / Fold change /veh NPB (11741838_a_at) / RFU TMPRSS6 (11731388_a_at) / Fold change /veh TMPRSS6 (11731388_a_at) / RFU KRTAP10-2 (11738614_at) / Fold change /veh KRTAP10-2 (11738614_at) / RFU ARHGAP8 /// PRR5-ARHGAP8 (11727945_x_at) / Fold change /veh ARHGAP8 /// PRR5-ARHGAP8 (11727945_x_at) / RFU KRTAP5-7 /// NADSYN1 (11734609_at) / Fold change /veh KRTAP5-7 /// NADSYN1 (11734609_at) / RFU RASL12 (11751679_a_at) / Fold change /veh RASL12 (11751679_a_at) / RFU CDKN2B (11736163_a_at) / Fold change /veh CDKN2B (11736163_a_at) / RFU PRF1 (11729649_at) / Fold change /veh PRF1 (11729649_at) / RFU, ZNF638 /// ZNF638-IT1 / Fold change vs veh, ZNF638 /// ZNF638-IT1 / RFU, PANK3 / Fold change vs veh, PANK3 / RFU, SH3YL1 / Fold change vs veh, SH3YL1 / RFU, ZEB2 / Fold change vs veh, ZEB2 / RFU, NRIP1 / Fold change vs veh, NRIP1 / RFU, PTTG1IP / Fold change vs veh, PTTG1IP / RFU, CAPN2 / Fold change vs veh, CAPN2 / RFU, MED14 / Fold change vs veh, MED14 / RFU, SNORA58 / Fold change vs veh, SNORA58 / RFU, C1orf63 / Fold change vs veh, C1orf63 / RFU, LRRFIP1 / Fold change vs veh, LRRFIP1 / RFU, NDUFAF7 / Fold change vs veh, NDUFAF7 / RFU, SLC12A2 / Fold change vs veh, SLC12A2 / RFU, IBTK / Fold change vs veh, IBTK / RFU, ESF1 / Fold change vs veh, ESF1 / Fold change vs veh, TMEM50B / RFU, TAOK1 / Fold change vs veh, TAOK1 / RFU, ACBD3 / Fold change vs veh, ACBD3 / RFU, TMA16 / Fold change vs veh, TMA16 / RFU, RWDD3 / Fold change vs veh, RWDD3 / RFU, BCAT1 / Fold change vs veh, BCAT1 / RFU, EDEM3 / Fold change vs veh, EDEM3 / RFU, TMEM33 / Fold change vs veh, TMEM33 / RFU, WDR75 / Fold change vs veh, WDR75 / RFU, AHCTF1 / Fold change vs veh, AHCTF1 / RFU, TFRC / Fold change vs veh, TFRC / RFU, ZDHHC17 / Fold change vs veh, ZDHHC17 / RFU, NOM1 / Fold change vs veh, NOM1 / RFU, ARL8B / Fold change vs veh, ARL8B / RFU, ZBTB11 / Fold change vs veh, ZBTB11 / RFU, TAMM41 / Fold change vs veh, TAMM41 / RFU, KIAA1704 /// LOC100996395 / Fold change vs veh, KIAA1704 /// LOC100996395 / RFU, ING1 / Fold change vs veh, ING1 / RFU, TRMT61B / Fold change vs veh, TRMT61B / RFU, FUBP3 / Fold change vs veh, FUBP3 / RFU, TP53 / Fold change vs veh, TP53 / RFU, TNKS2 / Fold change vs veh, TNKS2 / RFU, ZFP14 / Fold change vs veh, ZFP14 / RFU, ACTR2 / Fold change vs veh, ACTR2 / RFU, PPP3R1 / Fold change vs veh, PPP3R1 / RFU, PIK3R1 / Fold change vs veh, PIK3R1 / RFU, HNRNPA1 / Fold change vs veh, HNRNPA1 / RFU, RNF170 / Fold change vs veh, RNF170 / RFU, ZNF28 / Fold change vs veh, ZNF28 / RFU, RNGTT / Fold change vs veh, RNGTT / RFU, OGT / Fold change vs veh, OGT / RFU, BRD1 / Fold change vs veh, BRD1 / RFU, MARS / Fold change vs veh, MARS / RFU, ZNF655 / Fold change vs veh, ZNF655 / RFU, FAHD1 / Fold change vs veh, FAHD1 / RFU, BDP1 / Fold change vs veh, BDP1 / RFU, LRRCC1 / Fold change vs veh, LRRCC1 / RFU, ARID1A / Fold change vs veh, ARID1A / RFU, ZNF146 / Fold change vs veh, ZNF146 / RFU, ZNF330 / Fold change vs veh, ZNF330 / RFU, GPN3 / Fold change vs veh, GPN3 / RFU, C9orf123 / Fold change vs veh, C9orf123 / RFU, N4BP2L2 / Fold change vs veh, N4BP2L2 / RFU, ARFIP1 / Fold change vs veh, ARFIP1 / RFU, FAM179B / Fold change vs veh, FAM179B / RFU, BCL10 / Fold change vs veh, BCL10 / RFU, UHRF1BP1L / Fold change vs veh, UHRF1BP1L / RFU, BET1 / Fold change vs veh, BET1 / RFU, CNOT2 / Fold change vs veh, CNOT2 / RFU, ZNF268 / Fold change vs veh, ZNF268 / Fold change vs veh, ZNF507 / RFU, DGCR2 / Fold change vs veh, DGCR2 / RFU, WDSUB1 / Fold change vs veh, WDSUB1 / Fold change vs veh, HSP90B1 /// MIR3652 / RFU, ADSS / Fold change vs veh, ADSS / RFU, GK / Fold change vs veh, GK / RFU, ZNF148 / Fold change vs veh, ZNF148 / RFU, TAF9 / Fold change vs veh, TAF9 / RFU, SLC1A5 / Fold change vs veh, SLC1A5 / RFU, SLMO2 / Fold change vs veh, SLMO2 / RFU, ABCC4 / Fold change vs veh, ABCC4 / RFU, LOC101060439 /// RAP1B / Fold change vs veh, LOC101060439 /// RAP1B / RFU, RFX7 / Fold change vs veh, RFX7 / RFU, GTPBP10 / Fold change vs veh, GTPBP10 / RFU, CNEP1R1 / Fold change vs veh, CNEP1R1 / RFU, BIVM-ERCC5 /// ERCC5 / Fold change vs veh, BIVM-ERCC5 /// ERCC5 / RFU, ILF3 / Fold change vs veh, ILF3 / RFU 11762660_at / Fold change /veh 11762660_at / RFU VCAN (11757783_s_at) / Fold change /veh VCAN (11757783_s_at) / RFU DDX43 (11728927_at) / Fold change /veh DDX43 (11728927_at) / RFU KRT8 (11758188_x_at) / Fold change /veh KRT8 (11758188_x_at) / RFU NKD1 (11759106_at) / Fold change /veh NKD1 (11759106_at) / RFU SRD5A1 (11742802_a_at) / Fold change /veh SRD5A1 (11742802_a_at) / RFU TPSAB1 /// TPSB2 (11721975_s_at) / Fold change /veh TPSAB1 /// TPSB2 (11721975_s_at) / RFU GSTM3 (11746129_a_at) / Fold change /veh GSTM3 (11746129_a_at) / RFU IL23R (11737362_x_at) / Fold change /veh IL23R (11737362_x_at) / RFU TMEM51 (11727254_a_at) / Fold change /veh TMEM51 (11727254_a_at) / RFU PIWIL2 (11732686_x_at) / Fold change /veh PIWIL2 (11732686_x_at) / RFU ORM1 (11744905_x_at) / Fold change /veh ORM1 (11744905_x_at) / RFU CCDC152 (11743942_at) / Fold change /veh CCDC152 (11743942_at) / RFU ECM1 (11717891_a_at) / Fold change /veh ECM1 (11717891_a_at) / RFU IL23R (11748794_a_at) / Fold change /veh IL23R (11748794_a_at) / RFU TNFAIP8L3 (11732012_x_at) / Fold change /veh TNFAIP8L3 (11732012_x_at) / RFU MBOAT4 (11741988_at) / Fold change /veh MBOAT4 (11741988_at) / RFU 11764193_at / Fold change /veh 11764193_at / RFU TMEM53 (11763286_at) / Fold change /veh TMEM53 (11763286_at) / RFU MAGEB2 (11727129_at) / Fold change /veh MAGEB2 (11727129_at) / RFU TMEM200A (11744735_a_at) / Fold change /veh TMEM200A (11744735_a_at) / RFU CCDC152 (11751479_a_at) / Fold change /veh CCDC152 (11751479_a_at) / RFU FAM211A (11726209_a_at) / Fold change /veh FAM211A (11726209_a_at) / RFU RGS16 (11746705_a_at) / Fold change /veh RGS16 (11746705_a_at) / RFU VCAN (11755009_s_at) / Fold change /veh VCAN (11755009_s_at) / RFU RHOB (11743442_s_at) / Fold change /veh RHOB (11743442_s_at) / RFU RGS16 (11720943_a_at) / Fold change /veh RGS16 (11720943_a_at) / RFU RGS16 (11720944_at) / Fold change /veh RGS16 (11720944_at) / RFU, VPS4B / Fold change vs veh, VPS4B / RFU, CREB1 / Fold change vs veh, CREB1 / RFU, DNAJC13 / Fold change vs veh, DNAJC13 / RFU, GNAQ / Fold change vs veh, GNAQ / RFU, CDK5R1 / Fold change vs veh, CDK5R1 / RFU, ZRANB3 / Fold change vs veh, ZRANB3 / RFU, CUL4A / Fold change vs veh, CUL4A / RFU, CCNY / Fold change vs veh, CCNY / RFU, UFL1 / Fold change vs veh, UFL1 / RFU, COG3 / Fold change vs veh, COG3 / RFU, DIAPH2 / Fold change vs veh, DIAPH2 / RFU, SKA2 / Fold change vs veh, SKA2 / RFU, AFF3 / Fold change vs veh, AFF3 / RFU, LMF1 / Fold change vs veh, LMF1 / RFU, IPO11 / Fold change vs veh, IPO11 / RFU, DFFB / Fold change vs veh, DFFB / RFU, FOXP1 / Fold change vs veh, FOXP1 / RFU, CARD8 / Fold change vs veh, CARD8 / RFU, STRN3 / Fold change vs veh, STRN3 / RFU, ADK / Fold change vs veh, ADK / RFU, RASSF2 / Fold change vs veh, RASSF2 / RFU, WIPF1 / Fold change vs veh, WIPF1 / RFU, LARP1B / Fold change vs veh, LARP1B / RFU, RASA1 / Fold change vs veh, RASA1 / RFU, RB1 / Fold change vs veh, RB1 / RFU, PPFIA1 / Fold change vs veh, PPFIA1 / RFU, MAT2A / Fold change vs veh, MAT2A / RFU, CCT5 / Fold change vs veh, CCT5 / RFU, WDR92 / Fold change vs veh, WDR92 / RFU, CUX1 / Fold change vs veh, CUX1 / RFU, TTC7A / Fold change vs veh, TTC7A / RFU, TMEM135 / Fold change vs veh, TMEM135 / RFU, DEPTOR / Fold change vs veh, DEPTOR / RFU, CPM / Fold change vs veh, CPM / RFU, DNAJB6 / Fold change vs veh, DNAJB6 / RFU, CACNA2D3 / Fold change vs veh, CACNA2D3 / RFU, DTX4 / Fold change vs veh, DTX4 / RFU, TFCP2 / Fold change vs veh, TFCP2 / RFU, GMCL1 /// GMCL1P1 / Fold change vs veh, GMCL1 /// GMCL1P1 / RFU, AEBP2 / Fold change vs veh, AEBP2 / RFU, SNHG1 /// SNORD22 /// SNORD25 /// SNORD26 /// SNORD27 /// SNORD28 /// SNORD29 /// SNORD31 / Fold change vs veh, SNHG1 /// SNORD22 /// SNORD25 /// SNORD26 /// SNORD27 /// SNORD28 /// SNORD29 /// SNORD31 / Fold change (Aza/veh), C12orf56 (ProbeSet 11735607_a_at) / Fold change (ACY-1035/veh), C12orf56 (ProbeSet 11735607_a_at) / Fold change (Aza/veh), FGFR1OP (ProbeSet 11751329_s_at) / Fold change (ACY-1035/veh), FGFR1OP (ProbeSet 11751329_s_at) / Fold change (Aza/veh), VPS36 (ProbeSet 11739960_a_at) / Fold change (ACY-1035/veh), VPS36 (ProbeSet 11739960_a_at) / RFU SYPL1 (11715823_x_at) / Fold change /veh SYPL1 (11715823_x_at) / RFU IGFBP7 (11715501_s_at) / Fold change /veh IGFBP7 (11715501_s_at) / RFU REEP3 (11722064_at) / Fold change /veh REEP3 (11722064_at) / RFU IGLL1 (11728026_x_at) / Fold change /veh IGLL1 (11728026_x_at): dose or concentration left out as unconfirmed.

Take `Nc1ccc(-c2cccs2)cc1NC(=O)c1ccc2c(c1)cc(C1CC1)n2CCN1CCOCC1` [ACY-1035]: the “RFU, BCAT1” value is recorded as 827.78 RFU.
